Experimental data from patent US9510592B2, “Pesticidal compositions and processes related thereto” (Dow AgroSciences LLC, priority 2012, dated 2016).

Key:
Format in all cases: in vivo
[1] = system: Beet Armyworm (Spodoptera exigua); assay: Bioassay on Beet Armyworm (BAW), 128-well diet tray assay; conditions: percent mortality of second instar larvae, 50 μg/cm^2 on artificial diet, five to seven days, 25° C., Table 3; for pest or weed control at 50 µg/cm2, 50 µg/cm2: Spodoptera exigua, 168 h, read-out: BAW Rating
How it was run: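 Second-instar larvae (one to five per well) were placed on artificial diet surface-treated with 50 μg/cm^2 compound in acetone-water and held at 25 °C, 14:10 light-dark, for five to seven days. Percent mortality was averaged over eight wells.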

[2] = system: Corn Earworm (Helicoverpa zea); assay: Bioassay on Corn Earworm (CEW), 128-well diet tray assay; conditions: percent mortality of second instar larvae, 50 μg/cm^2 on artificial diet, five to seven days, 25° C., Table 3; for pest or weed control at 50 µg/cm2: Helicoverpa zea, 168 h, read-out: CEW Rating
Protocol: Certain molecules disclosed in this document were tested against BAW and CEW and CL using procedures described in the following examples. In the reporting of the results, the “BAW & CEW & CL Rating Table” was used (See Table Section).
Bioassays On CEW (Helicoverpa zea)
Bioassays on CEW were conducted using a 128-well diet tray assay. one to five second instar CEW larvae were placed in each well (3 mL) of the diet tray that had been previously filled with 1 mL of artificial diet to which 50 μg/cm^2 of the test compound (dissolved in 50 μL of 90:10 acetone-water mixture) had been applied (to each of eight wells) and then allowed to dry. Trays were covered with a clear self-adhesive cover, and held at 25° C., 14:10 light-dark for five to seven days. Percent mortality was recorded for the larvae in each well; activity in the eight wells was then averaged. The results are indicated in the table entitled “Table 3: Assay Results” (See Table Section).

[3] = system: Green Peach Aphid (Myzus persicae); assay: Bioassay on Green Peach Aphid (GPA), foliar spray on cabbage seedlings; conditions: 72 h, corrected % control (Abbott), 200 ppm spray on cabbage seedlings, three days, Table 3, read-out: GPA Rating
Protocol: Certain molecules disclosed in this document were tested against GPA using procedures described in the following example. In the reporting of the results, the “GPA Rating Table” was used (See Table Section). Cabbage seedlings grown in 3-inch pots, with 2-3 small (3-5 cm) true leaves, were used as test substrate. The seedlings were infested with 20-50 GPA (wingless adult and nymph stages) one day prior to chemical application. Four pots with individual seedlings were used for each treatment. Test compounds (2 mg) were dissolved in 2 mL of acetone/MeOH (1:1) solvent, forming stock solutions of 1000 ppm test compound. The stock solutions were diluted 5× with 0.025% Tween 20 in water to obtain the solution at 200 ppm test compound. A hand-held aspirator-type sprayer was used for spraying a solution to both sides of […] leaves until runoff. Reference plants (solvent check) were sprayed with the diluent only containing 20% by volume of acetone/MeOH (1:1) solvent. Treated plants were held in a holding room for three days at approximately 25° C. and ambient relative humidity (RH) prior to grading. Evaluation was conducted by counting the number of live aphids per plant under a microscope. Percent Control was measured by using Abbott's correction formula (W. S. Abbott, “A Method of Computing the Effectiveness of an Insecticide” J. Econ. Entomol. 18 (1925), pp. 265-267) as follows. Corrected % Control=100*(X−Y)/X • where • X=No. of live aphids on solvent check plants and • Y=No. of live aphids on treated plants The results are indicated in the table entitled “Table 3: Assay Results” (See Table Section).

| SMILES | pest or weed control at 50 µg/cm2, 50 µg/cm2 [1] [%] | pest or weed control at 50 µg/cm2 [2] [%] | pest or weed control at 200 ppm [3] [%] | CEW Rating [2] | BAW Rating [1] |
| --- | --- | --- | --- | --- | --- |
| Cc1cc(/C=C/C(c2cc(Cl)cc(Cl)c2)C(F)(F)F)ccc1C(=O)N[C@H]1C[S@@+]([O-])C1 (some centres unmarked) [AC82] | 50 to 100 | 50 to 100 | 0 to 80 | – | – |
| Cc1cc(/C=C/C(c2cc(Cl)c(Cl)c(Cl)c2)C(F)(F)F)ccc1C(=O)NC1CS(=O)(=O)C1 (centres unmarked) [AC25] | 50 to 100 | 50 to 100 | – | – | – |
| O=C(CC(F)(F)F)NCc1ccc(/C=C/C(c2cc(Cl)c(F)c(Cl)c2)C(F)(F)F)cc1 (centres unmarked) [CC16] | 50 to 100 | 50 to 100 | 0 to 80 | – | – |
| O=C(NCc1ccc(Cl)nc1)c1ccc(/C=C/C(c2cc(Cl)cc(Cl)c2)C(F)(F)F)cc1Br (centres unmarked) [AC46] | 50 to 100 | 50 to 100 | – | – | – |
| Cc1cc(/C=C/C(c2cc(Cl)cc(Cl)c2)C(F)(F)F)cnc1C(=O)NCc1ccc(Cl)nc1 (centres unmarked) [AC60] | 50 to 100 | 50 to 100 | 0 to 80 | – | – |
| O=C(CNC(=O)c1ccc(/C=C/C(c2cc(Cl)cc(Cl)c2)C(F)(F)F)cc1Cl)NCC(F)(F)F (centres unmarked) [AC57] | 50 to 100 | 50 to 100 | 0 to 80 | – | – |
| N#Cc1cc(/C=C/C(c2cc(C(F)(F)F)cc(C(F)(F)F)c2)C(F)(F)F)ccc1-n1cncn1 (centres unmarked) [DC30] | 50 to 100 | 50 to 100 | – | – | – |
| CN(C)NC(=O)CNC(=O)c1ccc(/C=C/C(c2cc(Cl)c(Cl)c(Cl)c2)C(F)(F)F)cc1Br (centres unmarked) [AC112] | 50 to 100 | 50 to 100 | – | – | – |
| FC(F)(F)C(/C=C/c1ccc(-n2cncn2)cc1)c1cc(Cl)c(Cl)c(Cl)c1 (centres unmarked) [DC18] | 50 to 100 | 50 to 100 | – | – | – |
| O=C(NC1CCN(CC(F)(F)F)CC1)c1ccc(/C=C/C(c2cc(Cl)c(Cl)c(Cl)c2)C(F)(F)F)cc1Br (centres unmarked) [AC105, (E)-2-Bromo-4-(4,4,4-trifluoro-3-(3,4,5-trichlorophenyl)but-1-en-1-yl)-N-(1-(2,2,2-trifluoroethyl)piperidin-4-yl)benzamide] | 50 to 100 | 50 to 100 | – | – | – |
| CCc1cc(/C=C/C(c2cc(Cl)c(F)c(Cl)c2)C(F)(F)F)ccc1C(=O)NCc1cccnc1Cl (centres unmarked) [AC76] | 50 to 100 | 50 to 100 | – | – | – |
| O=C(NCc1ccc(/C=C/C(c2cc(Cl)c(Cl)c(Cl)c2)C(F)(F)F)cc1)c1ccnc(Cl)c1 (centres unmarked) [CC13] | 50 to 100 | 50 to 100 | 0 to 80 | – | – |
| FC(F)(F)C(/C=C/c1ccc(-n2cncn2)cc1)c1cc(Cl)cc(Cl)c1Cl (centres unmarked) [DC17] | 50 to 100 | 50 to 100 | – | – | – |
| O=C(CC(F)(F)F)NC1CCc2cc(/C=C/C(c3cc(Cl)c(Cl)c(Cl)c3)C(F)(F)F)ccc21 (centres unmarked) [BC4, (E)-3,3,3-Trifluoro-N-(5-(4,4,4-trifluoro-3-(3,4,5-trichlorophenyl)but-1-enyl)-2,3-dihydro-1H-inden-1-yl)propanamide] | 50 to 100 | 50 to 100 | 0 to 80 | – | – |
| FC(F)(F)c1cc(Cl)cc(C(/C=C/c2ccc(-n3cncn3)cc2)C(F)(F)F)c1 (centres unmarked) [DC19] | 50 to 100 | 50 to 100 | – | – | – |
| FC(F)(F)C(/C=C/c1ccc(-n2cncn2)cc1)c1ccc(Cl)cc1Cl (centres unmarked) [DC13] | 50 to 100 | 50 to 100 | – | – | – |
| O=C(CC(F)(F)F)NCc1ccc(/C=C/C(c2cc(Cl)c(Cl)c(Cl)c2)C(F)(F)F)cc1Cl (centres unmarked) [CC10] | 50 to 100 | 50 to 100 | 0 to 80 | – | – |

| SMILES | pest or weed control at 50 µg/cm2, 50 µg/cm2 [1] [%] | pest or weed control at 50 µg/cm2 [2] [%] | pest or weed control at 200 ppm [3] [%] | CEW Rating [2] | BAW Rating [1] |
| --- | --- | --- | --- | --- | --- |
| C=CCNC(=S)NC1CCc2cc(/C=C/C(c3cc(Cl)c(Cl)c(Cl)c3)C(F)(F)F)ccc21 (centres unmarked) [BC3] | 50 to 100 | 50 to 100 | – | – | – |
| CCNC(=S)NC1CCc2cc(/C=C/C(c3cc(Cl)c(Cl)c(Cl)c3)C(F)(F)F)ccc21 (centres unmarked) [BC2] | 50 to 100 | 50 to 100 | – | – | – |
| Cc1cc(/C=C/C(c2cc(Cl)cc(Cl)c2)C(F)(F)F)ccc1C(=O)NCc1cccnc1 (centres unmarked) [AC14] | 50 to 100 | 0 to 50 | – | – | – |
| N#Cc1cc(/C=C/C(c2cc(Cl)cc(Cl)c2)C(F)(F)F)ccc1-n1cncn1 (centres unmarked) [DC29] | 50 to 100 | 50 to 100 | – | – | – |
| N#Cc1cc(/C=C/C(c2ccc(Cl)c(Cl)c2)C(F)(F)F)ccc1-n1cncn1 (centres unmarked) [DC28] | 50 to 100 | 50 to 100 | 0 to 80 | – | – |
| O=C(NCc1ccc(/C=C/C(c2cc(Cl)c(Cl)c(Cl)c2)C(F)(F)F)cc1Cl)Oc1ccccc1Cl (centres unmarked) [CC40] | – | – | – | A (50-100) | – |
| N#Cc1cc(/C=C/C(c2cc(Cl)c(Cl)c(Cl)c2)C(F)(F)F)ccc1-n1cncn1 (centres unmarked) [DC31] | 50 to 100 | 50 to 100 | 0 to 80 | – | – |
| CNC(=S)NC1CCc2cc(/C=C/C(c3cc(Cl)c(Cl)c(Cl)c3)C(F)(F)F)ccc21 (centres unmarked) [BC1, (E)-1-Methyl-3-(5-(4,4,4-trifluoro-3-(3,4,5-trichlorophenyl)-but-1-enyl)-2,3-dihydro-1H-inden-1-yl)thiourea] | 50 to 100 | 50 to 100 | – | – | – |
| CN(C)C(=O)NCc1ccc(/C=C/C(c2cc(Cl)c(Cl)c(Cl)c2)C(F)(F)F)cc1Cl (centres unmarked) [CC36, (E)-3-(2-Chloro-4-(4,4,4-trifluoro-3-(3,4,5-trichlorophenyl)but-1-en-1-yl)benzyl)-1,1-dimethylurea] | – | – | – | – | A (50-100) |
| N#Cc1cc(/C=C/C(c2cc(Cl)cc(Cl)c2)C(F)(F)F)ccc1-n1cnc([N+](=O)[O-])n1 (centres unmarked) [DC37] | – | – | – | – | A (50-100) |
| FC(F)(F)C(/C=C/c1ccc(-n2cncn2)cc1Cl)c1cc(Cl)cc(Cl)c1 (centres unmarked) [DC67] | – | – | – | – | A (50-100) |
| O=C(CNC(=O)c1ccc(/C=C/C(c2cc(Cl)c(F)c(Cl)c2)C(F)(F)F)cc1[N+](=O)[O-])NCC(F)(F)F (centres unmarked) [AC98] | – | – | – | – | A (50-100) |
| Cc1cc(/C=C/C(c2cc(Cl)cc(Cl)c2)C(F)(F)F)ccc1C(=O)NCC(=O)NC1CSC1 (centres unmarked) [AC41] | – | – | – | – | A (50-100) |
| Cc1cc(/C=C/C(c2cc(Cl)cc(Cl)c2)C(F)(F)F)ccc1C(=O)NC(C)c1ccc(Cl)nc1 (centres unmarked) [AC44] | 50 to 100 | 50 to 100 | 0 to 80 | – | – |
| Cc1cc(/C=C/C(c2cc(Cl)cc(Cl)c2)C(F)(F)F)ccc1C(=O)NCc1ncccn1 (centres unmarked) [AC18] | – | – | – | – | A (50-100) |
| O=C(NC1CCCc2cc(/C=C/C(c3cc(Cl)c(Cl)c(Cl)c3)C(F)(F)F)ccc21)C1CC1 (centres unmarked) [BC7] | – | – | – | – | A (50-100) |
